Measurements as given in US7524880B2, “Crystalline form of a substituted pyrrolidine compound” (Theravance, Inc., priority 2004, dated 2009).

Biological target: T1, hM2 receptor (Homo sapiens, UniProt P08172)
T1 construct: expressed in transfected cells; host or cells: CHO-K1 cells
T1 sequence (P08172 1-466): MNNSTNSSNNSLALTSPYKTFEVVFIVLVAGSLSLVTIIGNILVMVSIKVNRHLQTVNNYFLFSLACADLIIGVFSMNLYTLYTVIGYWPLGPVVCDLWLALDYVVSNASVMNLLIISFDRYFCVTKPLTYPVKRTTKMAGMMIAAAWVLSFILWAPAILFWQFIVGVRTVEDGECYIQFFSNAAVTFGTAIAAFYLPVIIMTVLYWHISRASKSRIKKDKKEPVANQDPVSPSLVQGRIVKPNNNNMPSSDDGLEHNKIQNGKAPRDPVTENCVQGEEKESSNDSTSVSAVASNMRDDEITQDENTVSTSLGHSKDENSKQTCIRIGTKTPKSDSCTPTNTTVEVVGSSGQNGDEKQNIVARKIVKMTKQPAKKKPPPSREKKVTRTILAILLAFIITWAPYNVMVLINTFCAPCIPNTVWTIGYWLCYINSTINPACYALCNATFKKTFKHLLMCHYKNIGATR
Assay: Blockade of agonist-mediated inhibition of cAMP accumulation
Type: cell-based
Conditions: CHO-K1 cells expressing the hM2 receptor; read-out: Ki value for blockade of oxotremorine-inhibition of forskolin-mediated cAMP accumulation
Protocol: A. Blockade of Agonist-Mediated Inhibition of cAMP Accumulation
In this assay, the functional potency of a test compound was determined by measuring the ability of the test compound to block oxotremorine-inhibition of forskolin-mediated cAMP accumulation in CHO-K1 cells expressing the hM2 receptor.
cAMP assays were performed in a radioimmunoassay format using the Flashplate Adenylyl Cyclase Activation Assay System with ^125I-cAMP (NEN SMP004B, PerkinElmer Life Sciences Inc., Boston, Mass.), according to the manufacturer's instructions.
Cells were rinsed once with dPBS and lifted with Trypsin-EDTA solution (0.05% trypsin/0.53 mM EDTA) as described in the Cell Culture and Membrane Preparation section above. […] The cell pellet was then re-suspended in 10 mL dPBS, and the cells were counted with a Coulter Z1 Dual Particle Counter (Beckman Coulter, Fullerton, Calif.). […]
Reactions were incubated for 10 minutes at 37° C. and stopped by addition of 100 μL ice-cold detection buffer. Plates were sealed, incubated overnight at room temperature and counted the next morning on a PerkinElmer TopCount liquid scintillation counter (PerkinElmer Inc., Wellesley, Mass.). The amount of cAMP produced (pmol/well) was calculated based on the counts observed for the samples and cAMP standards, as described in the manufacturer's user manual. […]

Ki: < 5 nM
SMILES: CNCCCCCCCCN1CC[C@@H](C(C(N)=O)(c2ccccc2)c2ccccc2)C1 [compound of formula I, 2-[(S)-1-(8-methylaminooctyl)pyrrolidin-3-yl]-2,2-diphenylacetamide]
